Values quoted from earlier work in patent US20210196661A1, “METHOD FOR AMELIORATION OF INSULIN RESISTANCE” (priority 2019, published 2021).

Columns and labels:
[1] = test system: integrated stress response (ISR); details: mice
[2] = in vivo

Row | Compound | age-related memory impairment [1] | levels of ATF4 [1] | levels of phosphorylated eIF2a [1] | half life [2]
1 | O=C(COc1ccc(Cl)cc1)NC1CCC(NC(=O)COc2ccc(Cl)cc2)CC1 (stereo not shown) [ISM] | rapidly reverses | decreases | decreases | –
2 | N[C@@H](Cc1cc(I)c(Oc2cc(I)c(O)c(I)c2)c(I)c1)C(=O)O [T4, L-thyroxine] | – | – | – | 120 to 170 h
